# Measurements published in US20230356105A1, “TETRAAZADODECANE BASED CHELATING AGENTS FOR SEPARATION OF RARE EARTH ELEMENTS AND METHOD THEREFOR” (Ustav Organicke Chemie a Biochemie AV CR V.V.I., priority 2020, published 2023).
# Several values for one entry are separate records, joined by “and”; a condition that tells them apart may be missing. Equal entries are not always repeated.
# Assay: Separation of Nd/Pr/Tb/Dy mixture by repeated precipitation using L5 and α-HIBA (Example 24)
# Assay type: physicochemical
# Protocol: The reaction mixture was prepared by pipetting the following aqueous stock solutions into a 20 mL glass vial: • 1. 476 μL 246 mM aqueous chelator L5 • 2. 606 μL 175.5 mM aqueous LnCl3 solution (from a stock solution containing a mixture of Ln =Nd, Pr, Tb, and Dy, in a ratio of 3.3:1:1:1, Nd:Pr:Tb:Dy) • 3. 41.6 μL 2560 mM aqueous α-HIBA pH=6.5 • 4. 4103 μL water • 5. 1733 μL 3.0 M MOPS pH=7
# The total reaction volume was 7.0 mL. Three identical reaction mixtures were prepared. A PTFE-coated stir bar was added to each vial; the vials were capped and stirred on a magnetic stirrer at room temperature. After 18 hours, a 200 μL aliquot of the reaction mixture was taken from each vial. This was centrifuged in a 2 mL plastic Eppendorf centrifuge tube, and the supernatant was carefully pipetted from the sample and transferred to a new set of tubes. The precipitate was dissolved by addition of 200 μL 1 M HCl, and the absolute concentration of each of the four lanthanides (Nd, Pr, Tb, and Dy) in each sample of the supernatant and precipitate was determined by ICP-OES. The remaining reaction mixtures from each vial were individually centrifuged in 15 mL plastic centrifuge tubes to separate the precipitate from the supernatant. The supernatant was discarded. Each precipitate was dissolved by addition of 2 mL 1 M HCl and heating to 80° C. for 1 hour. After dissolution, the acidic solutions were transferred to clean 20 mL glass vials with one PTFE-coated magnetic stir bar each. To each solution was added, in order: 2037 μL water, 40.4 μL 2560 mM aqueous α-HIBA pH =6.5, 1723 μL 3 M aqueous MOPS pH=7, and 1000 μL 2 M NaOH. These solutions were capped and stirred on a magnetic stirrer at room temperature. After 18 hours, a 200 μL aliquot of the reaction mixture was again taken from each and treated for ICP-OES analysis as before. Once again, the remaining reaction mixtures from each vial were individually centrifuged in 15 mL plastic centrifuge tubes to separate the precipitate from the supernatant. The supernatant was discarded. Each precipitate was dissolved by addition of 1 mL 1M HCl and heating to 80° C. for 1 hour. After dissolution, the acidic solutions were transferred to clean 20 mL glass vials with one PTFE-coated magnetic stir bar each. To each solution was added, in order: 3376 μL water, 51.6 μL 2560 mM aqueous α-HIBA pH =6.5, 1672 μL 3 M aqueous MOPS pH=7, and 500 μL 2 M NaOH. These solutions were capped and stirred on a magnetic stirrer at room temperature. After 18 hours, a final 200 μL aliquot of the reaction mixture was again taken from each vial and treated for ICP-OES analysis as before.
# [1] = series A (first precipitation, 18 hours), individual samples A1-A3
# [2] = series B (repeated precipitation), individual samples B1-B3
# [3] = series C (repeated precipitation), individual samples C1-C3
structure (smiles),measurement,setting,value
"O=C(O)CN1CCN(CC(=O)O)CCN(Cc2cccc3ccccc23)CCN(CC(=O)O)CC1 [L5, 2,2′,2″-(10-(naphthalene-1-ylmethyl)-1,4,7,10-tetraazacyklododekane-1,4,7-triyl)triacetic acid]","avg composition of precipitate, Dy",series A,6.3%
same,"avg composition of precipitate, Nd",series A,67.2%
same,"avg composition of precipitate, Pr",series A,18.2%
same,"avg composition of precipitate, Tb",series A,8.2%
same,"avg composition of supernatant, Dy",series A,43.8%
same,"avg composition of supernatant, Nd",series A,21.4%
same,"avg composition of supernatant, Pr",series A,3.2%
same,"avg composition of supernatant, Tb",series A,31.6%
same,precipitate concentration Dy,[1],0.81 mM and 0.82 mM (2×)
same,precipitate concentration Nd,[1],8.82 mM and 8.69 mM and 8.55 mM
same,precipitate concentration Pr,[1],2.39 mM and 2.35 mM and 2.32 mM
same,precipitate concentration Tb,[1],1.05 mM and 1.07 mM and 1.06 mM
same,supernatant concentration Dy,[1],1.69 mM and 1.65 mM and 1.68 mM
same,supernatant concentration Nd,[1],0.85 mM and 0.90 mM and 0.70 mM
same,supernatant concentration Pr,[1],0.12 mM and 0.15 mM and 0.09 mM
same,supernatant concentration Tb,[1],1.23 mM and 1.19 mM and 1.20 mM
same,"precipitate concentration Dy, avg",series A avg,0.81 mM
same,"precipitate concentration Nd, avg",series A avg,8.68 mM
same,"precipitate concentration Pr, avg",series A avg,2.35 mM
same,"precipitate concentration Tb, avg",series A avg,1.06 mM
same,"supernatant concentration Dy, avg",series A avg,1.67 mM
same,"supernatant concentration Nd, avg",series A avg,0.82 mM
same,"supernatant concentration Pr, avg",series A avg,0.12 mM
same,"supernatant concentration Tb, avg",series A avg,1.21 mM
same,"avg composition of precipitate, Dy",series B,2.0%
same,"avg composition of precipitate, Nd",series B,73.4%
same,"avg composition of precipitate, Pr",series B,20.6%
same,"avg composition of precipitate, Tb",series B,4.0%
same,"avg composition of supernatant, Dy",series B,28.7%
same,"avg composition of supernatant, Nd",series B,34.0%
same,"avg composition of supernatant, Pr",series B,3.1%
same,"avg composition of supernatant, Tb",series B,34.1%
same,precipitate concentration Dy,[2],0.20 mM and 0.21 mM and 0.22 mM
same,precipitate concentration Nd,[2],7.54 mM and 7.82 mM and 8.02 mM
same,precipitate concentration Pr,[2],2.11 mM and 2.20 mM and 2.24 mM
same,precipitate concentration Tb,[2],0.41 mM and 0.42 mM and 0.45 mM
same,supernatant concentration Dy,[2],0.50 mM and 0.52 mM and 0.54 mM
same,supernatant concentration Nd,[2],0.65 mM and 0.60 mM and 0.59 mM
same,supernatant concentration Pr,[2],0.06 mM and 0.05 mM (2×)
same,supernatant concentration Tb,[2],0.60 mM and 0.61 mM and 0.64 mM
same,"precipitate concentration Dy, avg",series B avg,0.21 mM
same,"precipitate concentration Nd, avg",series B avg,7.80 mM
same,"precipitate concentration Pr, avg",series B avg,2.18 mM
same,"precipitate concentration Tb, avg",series B avg,0.42 mM
same,"supernatant concentration Dy, avg",series B avg,0.52 mM
same,"supernatant concentration Nd, avg",series B avg,0.61 mM
same,"supernatant concentration Pr, avg",series B avg,0.06 mM
same,"supernatant concentration Tb, avg",series B avg,0.62 mM
same,"avg composition of precipitate, Dy",series C,0.5%
same,"avg composition of precipitate, Nd",series C,75.6%
same,"avg composition of precipitate, Pr",series C,22.1%
same,"avg composition of precipitate, Tb",series C,1.8%
same,"avg composition of supernatant, Dy",series C,10.4%
same,"avg composition of supernatant, Nd",series C,61.4%
same,"avg composition of supernatant, Pr",series C,6.5%
same,"avg composition of supernatant, Tb",series C,21.6%
same,precipitate concentration Dy,[3],0.03 mM and 0.04 mM (2×)
same,precipitate concentration Nd,[3],6.34 mM and 6.40 mM and 6.17 mM
same,precipitate concentration Pr,[3],1.85 mM and 1.87 mM and 1.80 mM
same,precipitate concentration Tb,[3],0.15 mM (2×) and 0.16 mM
same,supernatant concentration Dy,[3],0.12 mM (2×) and 0.13 mM
same,supernatant concentration Nd,[3],0.67 mM and 0.68 mM and 0.83 mM
same,supernatant concentration Pr,[3],0.07 mM (2×) and 0.10 mM
same,supernatant concentration Tb,[3],0.24 mM and 0.25 mM and 0.27 mM
same,"precipitate concentration Dy, avg",series C avg,0.04 mM
same,"precipitate concentration Nd, avg",series C avg,6.30 mM
same,"precipitate concentration Pr, avg",series C avg,1.84 mM
same,"precipitate concentration Tb, avg",series C avg,0.15 mM
same,"supernatant concentration Dy, avg",series C avg,0.12 mM
same,"supernatant concentration Nd, avg",series C avg,0.73 mM
same,"supernatant concentration Pr, avg",series C avg,0.08 mM
same,"supernatant concentration Tb, avg",series C avg,0.26 mM
